Results on 32 compounds are retold here after patent US20070275968A1, “Substituted Biphenyl Derivative” (priority 2004, published 2007).

With `Cc1cccc(-c2[nH]c(C(C)C)nc2-c2cccc(-c3ccccn3)c2)n1` [Example 43, 2-[2-Isopropyl-4-(3-pyridin-2-ylphenyl)-1H-imidazol-5-yl]-6-methylpyridine], the melting point lay in the range of 97 to 100 °C.
The same measure for `Cc1cccc(-c2[nH]c(C(C)C)nc2-c2cccc(-c3ccc(C(=O)NC4CCOCC4)cc3)c2)n1` [Example 44, N-(Tetrahydropyran-4-yl)-4-{3-[2-isopropyl-5-(6-methylpyridin-2-yl)-1H-imidazol-4-yl]-phenyl}benzamide]: 140 °C; for `Cc1cccc(-c2[nH]c(CC(C)C)nc2-c2cccc(-c3ccc(C(=O)NC4CCOCC4)cc3)c2)n1` [Example 45, N-(Tetrahydropyran-4-yl)-4-{3-[2-isobutyl-5-(6-methylpyridin-2-yl)-1H-imidazol-4-yl]phenyl}benzamide]: 126 to 129 °C.
The result for `Cc1cccc(-c2[nH]c(C3CC3)nc2-c2cccc(-c3ccc(C(=O)NC4CCOCC4)cc3)c2)n1` [Example 46, N-(Tetrahydropyran-4-yl)-4-{3-[2-cyclopropyl-5-(6-methylpyridin-2-yl)-1H-imidazol-4-yl]phenyl}benzamide] reads 127 to 128 °C; that for `Cc1cccc(-c2[nH]c(C(C)C)nc2-c2cccc(-c3ccc(C(=O)NN4CCOCC4)cc3)c2)n1` [Example 51, N-(Morpholin-4-yl)-4-{3-[2-isopropyl-5-(6-methylpyridin-2-yl)-1H-imidazol-4-yl]-phenyl}benzamide], 145 °C; that for `Cc1cccc(-c2nc(C(C)C)[nH]c2-c2cccc(-c3ccc(C(=O)N4CC[S+]([O-])CC4)cc3)c2)n1` [Example 56, 4-({3′-[2-Isopropyl-4-(6-methylpyridin-2-yl)-1H-imidazol-5-yl]-1,1′-biphenyl-4-yl}carbonyl)thiomorpholine 1-oxide], 136 to 140 °C.
The result for `Cc1cccc(-c2nc(C(C)C)[nH]c2-c2cccc(-c3ccc(C(=O)N4CCS(=O)(=O)CC4)cc3)c2)n1` [Example 57, 4-({3′-[2-Isopropyl-4-(6-methylpyridin-2-yl)-1H-imidazol-5-yl]-1,1′-biphenyl-4-yl}carbonyl)thiomorpholine 1,1-dioxide] reads 141 to 145 °C; that for `Cc1cccc(-c2[nH]c(C(C)C)nc2-c2ccc(F)c(-c3ccc(S(C)(=O)=O)cc3)c2)n1` [Example 61, 2-{4-[6-Fluoro-4′-(methylsulfonyl)-1,1′-biphenyl-3-yl]-2-isopropyl-1H-imidazol-5-yl}-6-methylpyridine], 113 to 115 °C; that for `Cc1cccc(-c2nc(N)sc2-c2cccc(-c3ccc(S(C)(=O)=O)cc3)c2)n1` [Example 62, 4-(6-Methylpyridin-2-yl)-5-[4′-(methylsulfonyl)-1,1′-biphenyl-3-yl]-1,3-thiazol-2-amine], 107 to 109 °C.
As for `CCc1cccc(-c2[nH]c(C(C)C)nc2-c2cccc(-c3ccc(S(C)(=O)=O)cc3)c2)n1` [Example 64, 2-Ethyl-6-{2-isopropyl-4-[4′-(methylsulfonyl)-1,1′-biphenyl-3-yl]-1H-imidazol-5-yl}pyridine], the melting point is 108 to 110 °C.
The compound `Cc1cccc(-c2[nH]c(C(C)C)nc2-c2ccc(F)c(-c3ccc(C(=O)NN4CCOCC4)cc3)c2)n1` [Example 66, N-(Morpholin-4-yl)-4-{2-fluoro-5-[2-isopropyl-5-(6-methylpyridin-2-yl)-1H-imidazol-4-yl]phenyl}benzamide] showed a melting point of 153 to 155 °C.
In turn, `Cc1cccc(-c2[nH]c(C(C)C)nc2-c2cccc(-c3ccc(NC(=O)NN4CCOCC4)cc3)c2)n1` [Example 67, N-{3′-[2-Isopropyl-5-(6-methylpyridin-2-yl)-1H-imidazol-4-yl]-1,1′-biphenyl-4-yl}-N′-morpholin-4-ylurea] had a melting point of 146 to 148 °C.
For `Cc1cccc(-c2[nH]c(C(C)C)nc2-c2cccc(-c3ccc(C)[nH]3)c2)n1` [Example 69, 2-{2-Isopropyl-4-[3-(5-methyl-1H-pyrrol-2-yl)phenyl]-1H-imidazol-5-yl}-6-methylpyridine], the melting point lay within 128 to 130 °C.
As to `Cc1cccc(-c2nc(C(C)C)[nH]c2-c2cccc(-c3cnn(C)c3)c2)n1` [Example 70, 2-{2-Isopropyl-5-[3-(1-methyl-1H-pyrazol-4-yl)phenyl]-1H-imidazol-4-yl}-6-methylpyridine], the melting point was 84 to 86 °C.
Compound `Cc1cccc(-c2[nH]c(C(C)C)nc2-c2cccc(-c3ccc(NS(C)(=O)=O)cc3F)c2)n1` [Example 73, N-{2-Fluoro-3′-[2-isopropyl-5-(6-methylpyridin-2-yl)-1H-imidazol-4-yl]-1,1′-biphenyl-4-yl}methanesulfonamide] came in with a melting point of 179 to 184 °C.
The result for `Cc1cccc(-c2[nH]c(C(C)C)nc2-c2cccc(-c3ccc(NS(=O)(=O)C4CC4)cc3F)c2)n1` [Example 74, N-{2-Fluoro-3′-[2-isopropyl-5-(6-methylpyridin-2-yl)-1H-imidazol-4-yl]-1,1′-biphenyl-4-yl}cyclopropanesulfonamide] reads 124 to 128 °C; that for `Cc1cccc(-c2[nH]c(C(C)C)nc2-c2cccc(-c3ccc(S(N)(=O)=O)cc3F)c2)n1` [Example 75, 2-Fluoro-3′-[2-isopropyl-5-(6-methylpyridin-2-yl)-1H-imidazol-4-yl]-1,1′-biphenyl-4-sulfonamide], 246 to 248 °C; that for `Cc1cccc(-c2[nH]c(C(C)C)nc2-c2cccc(-c3ccc(N)cn3)c2)n1` [Example 76, 6-{3-[2-Isopropyl-5-(6-methylpyridin-2-yl)-1H-imidazol-4-yl]phenyl}pyridine-3-amine], 119 to 124 °C.
Compound `Cc1cccc(-c2[nH]c(C(C)C)nc2-c2cccc(-c3cc[nH]c3)c2)n1` [Example 78, 2-{2-Isopropyl-4-[3-(1H-pyrrol-3-yl)phenyl]-1H-imidazol-5-yl}-6-methylpyridine] returned a melting point of 112 to 114 °C.
The result for `Cc1cccc(-c2[nH]c(C(C)C)nc2-c2cccc(-c3ccc4c(c3)C(=O)CC[S+]4[O-])c2)n1` (centres unmarked) [Example 80, 6-{3-[2-Isopropyl-5-(6-methylpyridin-2-yl)-1H-imidazol-4-yl]phenyl}-2,3-dihydro-4H-thiochromen-4-one 1-oxide] reads 145 to 148 °C; that for `Cc1cccc(-c2[nH]c(C(C)C)nc2-c2cccc(-c3ccc4c(c3)C(=O)CCS4(=O)=O)c2)n1` [Example 81, 6-{3-[2-Isopropyl-5-(6-methylpyridin-2-yl)-1H-imidazol-4-yl]phenyl}-2,3-dihydro-4H-thiochromen-4-one 1,1-dioxide], 115 to 119 °C.
`Cc1cccc(-c2[nH]c(C(C)C)nc2-c2cccc(-c3ccc4c(c3)CCCS4)c2)n1` [Example 82, 2-{4-[3-(3,4-Dihydro-2H-thiochromen-6-yl)phenyl]-2-isopropyl-1H-imidazol-5-yl}-6-methylpyridine]: the melting point was 115 to 117 °C.
With `Cc1cccc(-c2[nH]c(C(C)C)nc2-c2cccc(-c3ccc4c(c3)CCC[S+]4[O-])c2)n1` (centres unmarked) [Example 83, 2-{2-Isopropyl-4-[3-(1-oxido-3,4-dihydro-2H-thiochromen-6-yl)phenyl]-1H-imidazol-5-yl}-6-methylpyridine], the melting point was in the range of 136 to 139 °C.
Regarding `Cc1cccc(-c2[nH]c(C(C)C)nc2-c2cccc(-c3ccc4c(c3)C=CS4(=O)=O)c2)n1` [Example 85, 2-{4-[3-(1,1-Dioxido-1-benzothien-5-yl)phenyl]-2-isopropyl-1H-imidazol-5-yl}-6-methylpyridine], the melting point lay within 137 to 138 °C.
The compound `Cc1cccc(-c2[nH]c(C(C)C)nc2-c2cccc(-c3ccc4c(c3)CCS4(=O)=O)c2)n1` [Example 86, 2-{4-[3-(1,1-Dioxido-2,3-dihydro-1-benzothien-5-yl)phenyl]-2-isopropyl-1H-imidazol-5-yl}-6-methylpyridine] registered a melting point of 128 to 131 °C.
`Cc1cccc(-c2[nH]c(C(C)C)nc2-c2cccc(-c3ccc(NS(=O)(=O)C4CC4)cn3)c2)n1` [Example 87, N-(6-{3-[2-Isopropyl-5-(6-methylpyridin-2-yl)-1H-imidazol-4-yl]phenyl}pyridin-3-yl)cyclopropanesulfonamide] came in with a melting point of 133 to 136 °C.
The result for `Cc1cccc(-c2[nH]c(C(C)C)nc2-c2cccc(-c3ccc(S(C)(=O)=O)cn3)c2)n1` [Example 88, 2-{3-[2-Isopropyl-5-(6-methylpyridin-2-yl)-1H-imidazol-4-yl]phenyl}-5-(methylsulfonyl)pyridine] reads 112 to 114 °C; that for `Cc1cccc(-c2[nH]c(C(C)C)nc2-c2cccc(-n3ccnc3)c2)n1` [Example 90, 2-{4-[3-(1H-Imidazol-1-yl)phenyl]-2-isopropyl-1H-imidazol-5-yl}-6-methylpyridine], 158 to 161 °C.
With `Cc1cccc(-c2[nH]c(C(C)C)nc2-c2ccc(F)c(-c3ccc(NC(=O)NN4CCN(C)CC4)cc3)c2)n1` [Example 92, N-{2′-Fluoro-5′-[2-isopropyl-5-(6-methylpyridin-2-yl)-1H-imidazol-4-yl]-1,1′-biphenyl-4-yl}-N′-(4-methylpiperazin-1-yl)urea], the melting point was found to be 145 °C.
`Cc1cccc(-c2[nH]c(C(C)C)nc2-c2ccc(F)c(-c3ccc[nH]3)c2)n1` [Example 93, 2-{4-[4-Fluoro-3-(1H-pyrrol-2-yl)phenyl]-2-isopropyl-1H-imidazol-5-yl}-6-methylpyridine] yielded a melting point of 103 to 106 °C.
The compound `Cc1cccc(-c2[nH]c(C(C)C)nc2-c2ccc(F)c(-c3ccc(NC(=O)NC4CCN(C)CC4)cc3)c2)n1` [Example 95, N-{2′-Fluoro-5′-[2-isopropyl-5-(6-methylpyridin-2-yl)-1H-imidazol-4-yl]-1,1′-biphenyl-4-yl}-N′-(1-methylpiperidin-4-yl)urea] returned a melting point of 145 °C.
Take `Cc1cccc(-c2[nH]c(C(C)C)nc2-c2ccc(F)c(-c3ccc(N4CCOCC4)cc3)c2)n1` [Example 100, 4-{2′-Fluoro-5′-[2-isopropyl-5-(6-methylpyridin-2-yl)-1H-imidazol-4-yl]-1,1′-biphenyl-4-yl}morpholine]: the melting point was 109 to 111 °C.

One may read the melting point as the temperature of the solid-liquid transition.
